Here are results for 19 compounds from patent US20120220564A1, “SELECTIVE CALCIUM CHANNEL MODULATORS” (Zalicus Pharmaceuticals Ltd., priority 2009, published 2012).

pIC50: −log10 of the molar value.

For one data set, the target named is T1, α1G (CaV 3.1) (Homo sapiens, UniProt O43497).
T1 construct: expressed in transfected cells; host or cells: HEK 293
Kind of data set: T-type calcium channel block, whole cell patch clamp. In kind it is cell-based. The following applies: HEK cells, mainly non-inactivated protocol; values above 10,000 nM represented as 10000. The procedure: (§1) T-type calcium channel blocking activity was assayed in human embryonic kidney cells, HEK 293 (Invitrogen), stably transfected with the T-type calcium channel subunits. Briefly, cells were cultured in Dulbecco's modified eagle medium (DMEM) supplemented with 10% fetal bovine serum, 200 U/ml penicillin, and 0.2 mg/mL streptomycin at 37° C. with 5% CO2. At 85% confluency, cells were split with 0.25% trypsin/1 mM EDTA and plated at 10% confluency on glass coverslips. At 12 hours, the medium was replaced, and the cells stably transfected using a standard calcium phosphate protocol and the appropriate calcium channel cDNA's. Fresh DMEM was supplied, and the cells transferred to 28° C./5% CO2. Cells were incubated for 1 to 2 days prior to whole cell recording.
(§2) Standard patch-clamp techniques were employed to identify blockers of T-type currents. Briefly, previously described HEK cell lines stably expressing human α1G, α1H and α1I T-type channels were used for all the recordings (passage #: 4-20, 37° C., 5% CO2). Whole cell patch clamp experiments were performed using an Axopatch 200B amplifier (Axon Instruments, Burlingame, Calif.) linked to a personal computer equipped with pCLAMP software. Data were analyzed using Clampfit (Axon Instruments) and SigmaPlot 4.0 (Jandel Scientific). To obtain T-type currents, plastic dishes containing semi-confluent cells were positioned on the stage of a ZEISS AXIOVERT S100 microscope after replacing the culture medium with external solution (Table 2). Whole-cell patches were obtained using pipettes (borosilicate glass with filament, O.D.: 1.5 mm, I.D.: 0.86 mm, 10 cm length), fabricated on a SUTTER P-97 puller with resistance values of ˜5 MΩ (Table 3).
(§3) T-type currents were reliably obtained by using two voltage protocols:
(§4) In the non-inactivating protocol, the holding potential is set at −110 mV and with a pre-pulse at −100 mV for 1 second prior to the test pulse at −40 mV for 50 ms. In the inactivation protocol, the pre-pulse is at approximately −85 mV for 1 second, which inactivates about 15% of the T-type channels (Scheme 1).
(§5) Test compounds were dissolved in external solution, 0.1-0.01% DMSO. After ˜10 minutes rest, they were applied by gravity close to the cell using a WPI microfil tubing. The “non-inactivated” pre-pulse was used to examine the resting block of a compound. The “inactivated” protocol was employed to study voltage-dependent block. However, the initial data shown below were mainly obtained using the non-inactivated protocol only. IC50 values are shown for various compounds of the invention in Table 4. […] In Table 4, empty cells indicate that inhibition by the compound was not detected.
(In patch-clamp work, channel activity is measured electrically.)

Another data set deals with T2, α1H (CaV 3.2) (Homo sapiens, UniProt O95180).
T2 construct: expressed in transfected cells; host or cells: HEK 293
The data set is described as above. In kind it is cell-based. The following applies: HEK cells, mainly non-inactivated protocol; values above 10,000 nM represented as 10000. The procedure: as §1, §2, §3, §4, §5

The subject of a further data set is 6 Hz psychomotor seizure. Briefly: 6 Hz psychomotor seizure model of partial epilepsy. It counts as in vivo, mice. On the set-up: concentration or dose not given beside the values. The text has this:
Compounds can also be evaluated for the protection against seizures induced by a 6 Hz, 0.2 ms rectangular pulse width of 3 s duration, at a stimulus intensity of 32 mA (CC97) applied to the cornea of male CF1 mice (20-30 g) according to procedures described by Barton et al, “Pharmacological Characterization of the 6 Hz Psychomotor Seizure Model of Partial Epilepsy,” Epilepsy Res. 47(3):217-27 (2001). Seizures are characterised by the expression of one or more of the following behaviours: stun, forelimb clonus, twitching of the vibrissae and Straub-tail immediately following electrical stimulation.

Data set [1] deals with minimal muscular or neurological impairment (rotarod). Briefly: Mouse rotarod assay. It counts as in vivo, mice. The procedure: To assess a compound's undesirable side effects (toxicity), animals can be monitored for overt signs of impaired neurological or muscular function. In mice, the rotarod procedure (Dunham and Miya, J. Am. Pharmacol. Assoc. 46:208-209 (1957)) is used to disclose minimal muscular or neurological impairment (MMI). When a mouse is placed on a rod that rotates at a speed of 6 rpm, the animal can maintain its equilibrium for long periods of time. The animal is considered toxic if it falls off this rotating rod three times during a 1-min period.
On the technique in general: In the rotarod test animals must keep their balance on a rotating rod.

T1 sequence (O43497 whole entry): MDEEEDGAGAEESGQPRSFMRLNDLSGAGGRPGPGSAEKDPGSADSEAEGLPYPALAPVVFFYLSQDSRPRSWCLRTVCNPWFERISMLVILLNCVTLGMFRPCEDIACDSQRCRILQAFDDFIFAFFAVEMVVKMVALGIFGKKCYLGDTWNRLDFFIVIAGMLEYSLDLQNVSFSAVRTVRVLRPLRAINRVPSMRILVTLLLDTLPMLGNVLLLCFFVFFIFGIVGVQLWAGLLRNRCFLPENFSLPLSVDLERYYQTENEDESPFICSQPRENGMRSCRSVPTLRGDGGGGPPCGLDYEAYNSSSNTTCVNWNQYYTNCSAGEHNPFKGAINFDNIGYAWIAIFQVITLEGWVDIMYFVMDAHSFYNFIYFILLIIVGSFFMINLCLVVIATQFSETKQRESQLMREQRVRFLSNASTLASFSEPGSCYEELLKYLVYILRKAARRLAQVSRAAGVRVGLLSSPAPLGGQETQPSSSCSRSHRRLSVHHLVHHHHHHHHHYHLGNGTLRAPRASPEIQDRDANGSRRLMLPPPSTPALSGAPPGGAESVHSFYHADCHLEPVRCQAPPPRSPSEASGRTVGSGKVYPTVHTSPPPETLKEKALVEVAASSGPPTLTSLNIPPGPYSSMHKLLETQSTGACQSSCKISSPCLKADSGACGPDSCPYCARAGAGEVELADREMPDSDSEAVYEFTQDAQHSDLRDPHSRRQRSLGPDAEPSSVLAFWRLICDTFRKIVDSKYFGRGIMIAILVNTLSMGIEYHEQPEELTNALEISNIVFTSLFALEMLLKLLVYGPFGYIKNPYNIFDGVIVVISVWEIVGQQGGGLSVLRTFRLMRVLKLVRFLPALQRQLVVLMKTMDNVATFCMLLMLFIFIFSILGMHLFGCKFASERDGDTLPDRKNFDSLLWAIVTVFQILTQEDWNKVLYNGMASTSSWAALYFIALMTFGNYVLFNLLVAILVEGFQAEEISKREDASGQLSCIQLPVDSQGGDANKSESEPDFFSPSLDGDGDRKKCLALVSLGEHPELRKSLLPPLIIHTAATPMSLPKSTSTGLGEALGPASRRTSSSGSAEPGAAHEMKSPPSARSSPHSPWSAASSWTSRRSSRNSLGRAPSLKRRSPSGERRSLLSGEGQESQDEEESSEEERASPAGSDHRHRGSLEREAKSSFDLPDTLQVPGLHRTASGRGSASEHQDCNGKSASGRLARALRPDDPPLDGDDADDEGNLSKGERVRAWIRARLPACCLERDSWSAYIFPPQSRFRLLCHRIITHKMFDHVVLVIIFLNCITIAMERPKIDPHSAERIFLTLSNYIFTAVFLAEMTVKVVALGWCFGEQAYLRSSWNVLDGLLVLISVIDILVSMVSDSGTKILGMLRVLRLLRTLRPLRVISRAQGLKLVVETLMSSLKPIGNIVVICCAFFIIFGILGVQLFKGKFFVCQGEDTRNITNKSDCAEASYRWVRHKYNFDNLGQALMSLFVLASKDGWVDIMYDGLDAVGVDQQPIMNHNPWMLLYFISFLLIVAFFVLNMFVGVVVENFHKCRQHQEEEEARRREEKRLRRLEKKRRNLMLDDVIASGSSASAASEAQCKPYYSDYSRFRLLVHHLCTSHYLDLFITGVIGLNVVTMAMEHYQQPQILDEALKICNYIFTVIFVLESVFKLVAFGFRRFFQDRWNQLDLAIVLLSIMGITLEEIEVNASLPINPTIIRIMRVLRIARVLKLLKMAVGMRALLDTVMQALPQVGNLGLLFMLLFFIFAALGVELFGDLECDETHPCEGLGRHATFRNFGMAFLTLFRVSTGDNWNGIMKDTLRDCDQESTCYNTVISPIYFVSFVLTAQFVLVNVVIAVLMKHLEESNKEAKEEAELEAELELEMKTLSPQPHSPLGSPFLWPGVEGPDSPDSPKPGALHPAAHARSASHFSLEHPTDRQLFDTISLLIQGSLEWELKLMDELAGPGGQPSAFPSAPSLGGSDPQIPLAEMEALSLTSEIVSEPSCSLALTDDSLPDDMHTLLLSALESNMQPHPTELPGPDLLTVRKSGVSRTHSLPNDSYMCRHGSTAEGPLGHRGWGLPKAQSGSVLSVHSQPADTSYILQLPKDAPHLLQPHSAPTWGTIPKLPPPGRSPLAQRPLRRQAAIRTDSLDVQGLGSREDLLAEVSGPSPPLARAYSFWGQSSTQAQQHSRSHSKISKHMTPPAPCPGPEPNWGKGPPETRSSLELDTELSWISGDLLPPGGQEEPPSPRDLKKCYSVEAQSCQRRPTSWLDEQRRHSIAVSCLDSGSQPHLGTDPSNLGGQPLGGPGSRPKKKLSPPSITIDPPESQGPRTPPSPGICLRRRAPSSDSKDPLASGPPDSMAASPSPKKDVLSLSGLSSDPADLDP
T2 sequence (O95180 whole entry): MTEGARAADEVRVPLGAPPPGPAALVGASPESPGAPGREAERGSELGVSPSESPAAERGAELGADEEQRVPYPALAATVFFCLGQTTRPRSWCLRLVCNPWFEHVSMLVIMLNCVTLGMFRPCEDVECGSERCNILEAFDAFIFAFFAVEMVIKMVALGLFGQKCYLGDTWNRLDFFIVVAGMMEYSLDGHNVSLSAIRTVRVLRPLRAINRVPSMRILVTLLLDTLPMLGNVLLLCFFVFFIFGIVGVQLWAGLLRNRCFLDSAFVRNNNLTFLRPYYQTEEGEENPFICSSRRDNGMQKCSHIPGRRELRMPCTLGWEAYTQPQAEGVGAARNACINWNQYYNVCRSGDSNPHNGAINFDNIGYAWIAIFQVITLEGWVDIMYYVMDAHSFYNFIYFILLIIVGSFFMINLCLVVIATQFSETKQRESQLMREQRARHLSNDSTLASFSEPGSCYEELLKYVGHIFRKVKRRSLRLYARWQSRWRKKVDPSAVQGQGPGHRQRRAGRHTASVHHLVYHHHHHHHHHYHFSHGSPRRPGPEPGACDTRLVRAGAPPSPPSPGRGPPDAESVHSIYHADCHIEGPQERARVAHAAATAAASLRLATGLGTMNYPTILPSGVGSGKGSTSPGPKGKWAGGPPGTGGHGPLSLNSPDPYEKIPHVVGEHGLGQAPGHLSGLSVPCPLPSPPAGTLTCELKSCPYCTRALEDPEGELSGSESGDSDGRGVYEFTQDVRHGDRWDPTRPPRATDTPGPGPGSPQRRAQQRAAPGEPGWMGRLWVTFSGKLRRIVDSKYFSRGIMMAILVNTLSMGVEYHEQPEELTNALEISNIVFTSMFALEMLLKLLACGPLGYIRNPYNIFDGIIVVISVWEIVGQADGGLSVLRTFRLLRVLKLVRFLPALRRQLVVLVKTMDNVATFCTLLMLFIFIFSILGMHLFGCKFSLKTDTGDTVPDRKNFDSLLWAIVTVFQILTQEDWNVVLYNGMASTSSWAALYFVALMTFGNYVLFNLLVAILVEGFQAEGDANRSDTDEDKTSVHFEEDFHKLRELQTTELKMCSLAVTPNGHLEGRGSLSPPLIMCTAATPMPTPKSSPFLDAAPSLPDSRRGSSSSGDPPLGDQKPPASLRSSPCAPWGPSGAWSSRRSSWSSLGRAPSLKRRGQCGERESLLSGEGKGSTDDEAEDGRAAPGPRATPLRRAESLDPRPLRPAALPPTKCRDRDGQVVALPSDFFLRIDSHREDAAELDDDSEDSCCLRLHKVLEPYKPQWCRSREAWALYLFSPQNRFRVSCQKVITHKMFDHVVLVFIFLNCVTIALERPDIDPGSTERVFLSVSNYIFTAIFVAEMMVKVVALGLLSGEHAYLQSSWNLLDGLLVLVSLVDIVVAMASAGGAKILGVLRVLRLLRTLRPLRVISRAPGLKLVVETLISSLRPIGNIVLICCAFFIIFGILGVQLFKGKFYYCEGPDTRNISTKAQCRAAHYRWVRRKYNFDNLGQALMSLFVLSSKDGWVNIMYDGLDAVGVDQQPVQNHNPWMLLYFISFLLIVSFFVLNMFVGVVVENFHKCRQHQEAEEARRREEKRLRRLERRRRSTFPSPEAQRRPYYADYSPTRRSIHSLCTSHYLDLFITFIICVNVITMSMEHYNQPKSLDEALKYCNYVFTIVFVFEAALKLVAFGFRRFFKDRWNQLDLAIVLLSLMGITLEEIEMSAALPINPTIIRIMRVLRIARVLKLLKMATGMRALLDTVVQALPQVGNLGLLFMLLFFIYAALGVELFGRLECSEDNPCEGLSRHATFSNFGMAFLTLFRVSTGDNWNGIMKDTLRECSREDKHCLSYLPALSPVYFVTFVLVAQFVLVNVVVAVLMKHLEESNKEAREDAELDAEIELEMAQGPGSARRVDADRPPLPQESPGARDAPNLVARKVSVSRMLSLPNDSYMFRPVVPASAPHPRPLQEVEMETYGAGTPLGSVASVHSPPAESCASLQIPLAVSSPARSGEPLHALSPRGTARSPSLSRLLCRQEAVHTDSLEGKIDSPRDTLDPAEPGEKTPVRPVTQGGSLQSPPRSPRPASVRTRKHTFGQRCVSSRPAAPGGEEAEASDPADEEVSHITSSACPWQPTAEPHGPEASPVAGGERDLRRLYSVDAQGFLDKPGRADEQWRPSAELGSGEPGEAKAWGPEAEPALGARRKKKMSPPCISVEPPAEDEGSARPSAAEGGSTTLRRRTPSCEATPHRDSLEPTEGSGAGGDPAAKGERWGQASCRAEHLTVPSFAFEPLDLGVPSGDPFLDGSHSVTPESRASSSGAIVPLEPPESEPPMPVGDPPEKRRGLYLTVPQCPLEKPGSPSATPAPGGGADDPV

As usually defined, the pIC50 is −log10 of the IC50, conventionally taken in molar units. In the case of `N[C@H]1CCCC[C@H]1C(=O)N1CCC(CC(=O)Nc2cc(C(F)(F)F)cc(C(F)(F)F)c2)CC1` (racemic) [Compound 5, cis-2-(1-(2-aminocyclohexanecarbonyl)piperidin-4-yl)-N-(3,5-bis(trifluoromethyl)phenyl)acetamide], the pIC50 at α1G (CaV 3.1) was below 5.00; on α1H (CaV 3.2), 7.00.

On to `N[C@H]1CCCC[C@@H]1C(=O)N1CCC(CC(=O)Nc2cccc(C(F)(F)F)c2)CC1` (racemic) [Compound 13, trans-2-(1-(2-aminocyclohexanecarbonyl)piperidin-4-yl)-N-(3-(trifluoromethyl)phenyl)acetamide], for which the negative-log IC50 (pIC50) at α1G (CaV 3.1) was below 5.00; at α1H (CaV 3.2), 5.57.

For the compound `N[C@H]1CCCC[C@@H]1C(=O)N1CCC(CC(=O)Nc2cc(Cl)cc(Cl)c2)CC1` (racemic) [Compound 17, trans-2-(1-(2-aminocyclohexanecarbonyl)piperidin-4-yl)-N-(3,5-dichlorophenyl)acetamide], the results for the pIC50 at α1G (CaV 3.1) and on α1H (CaV 3.2) were below 5.00 and 6.16, respectively.

Regarding `N[C@H]1CCCC[C@@H]1C(=O)N1CCC(CC(=O)Nc2cc(Br)cc(C(F)(F)F)c2)CC1` (racemic) [Compound 19, trans-2-(1-(2-aminocyclohexanecarbonyl)piperidin-4-yl)-N-(3-bromo-5-(trifluoromethyl)phenyl)acetamide], the figures for the pIC50 at α1G (CaV 3.1) and on α1H (CaV 3.2) were below 5.00 and 6.55, respectively.

Consider `N[C@H]1CCCC[C@@H]1C(=O)N1CCC(CC(=O)Nc2ccc(Br)c(C(F)(F)F)c2)CC1` (racemic) [Compound 20, trans-2-(1-(2-aminocyclohexanecarbonyl)piperidin-4-yl)-N-(4-bromo-3-(trifluoromethyl)phenyl)acetamide], for which the pIC50 is below 5.00 on α1G (CaV 3.1) and 6.04 on α1H (CaV 3.2).

As for `N[C@@H]1CCCC[C@H]1C(=O)N1CC(CC(=O)Nc2cc(C(F)(F)F)cc(C(F)(F)F)c2)C1` (racemic) [Compound 40, trans-2-(1-(2-aminocyclohexanecarbonyl)azetidin-3-yl)-N-(3,5-bis(trifluoromethyl)phenyl)acetamide], the pIC50 on α1G (CaV 3.1) was below 5.00; on α1H (CaV 3.2), 6.08.

As to `N[C@H]1CCCC[C@H]1C(=O)N1CC(CC(=O)Nc2cc(C(F)(F)F)cc(C(F)(F)F)c2)C1` (racemic) [Compound 41, cis-2-(1-(2-aminocyclohexanecarbonyl)azetidin-3-yl)-N-(3,5-bis(trifluoromethyl)phenyl)acetamide], the pIC50 on α1G (CaV 3.1) is below 5.00; at α1H (CaV 3.2) it was 6.07.

For `N[C@@H]1CCCC[C@H]1C(=O)N1CCC(CNC(=O)c2cc(C(F)(F)F)cc(C(F)(F)F)c2)CC1` (racemic) [Compound 48], the pIC50 at α1G (CaV 3.1) was below 5.00; on α1H (CaV 3.2) it was 5.73.

`CN1CCCC(C(=O)N2CCC(CC(=O)Nc3cc(C(F)(F)F)cc(C(F)(F)F)c3)CC2)C1` (centres unmarked) [Compound 1, N-(3,5-bis(trifluoromethyl)phenyl)-2-(1-(1-methylpiperidine-3-carbonyl)piperidin-4-yl)acetamide]: the pIC50 at α1G (CaV 3.1) is below 5.00; on α1H (CaV 3.2), 6.29.

In the case of `N[C@@H]1CCCC[C@H]1C(=O)N1CCC(CC(=O)Nc2cc(C(F)(F)F)cc(C(F)(F)F)c2)CC1` [Compound 6, 2-(1-((1R,2R)-2-aminocyclohexanecarbonyl)piperidin-4-yl)-N-(3,5-bis(trifluoromethyl)phenyl)acetamide], the pIC50 is below 5.00 at α1G (CaV 3.1) and 6.60 at α1H (CaV 3.2).

`N[C@H]1CCCC[C@@H]1C(=O)N1CCC(CC(=O)Nc2cc(C(F)(F)F)cc(C(F)(F)F)c2)CC1` [Compound 7, 2-(1-((1S,2S)-2-aminocyclohexanecarbonyl)piperidin-4-yl)-N-(3,5-bis(trifluoromethyl)phenyl)acetamide]: the figures for the negative logarithm of the IC50 (pIC50) on α1G (CaV 3.1) and on α1H (CaV 3.2) were below 5.00 and 6.85, respectively.

For `NC1(C(=O)N2CCC(CC(=O)Nc3cc(C(F)(F)F)cc(C(F)(F)F)c3)CC2)CCCCC1` [Compound 9, 2-(1-(1-aminocyclohexanecarbonyl)piperidin-4-yl)-N-(3,5-bis(trifluoromethyl)phenyl)acetamide], the pIC50 on α1G (CaV 3.1) is 5.33; at α1H (CaV 3.2), 6.00.

Turning to `O=C(CC1CCN(C(=O)C2CCCCN2)C1)Nc1cc(C(F)(F)F)cc(C(F)(F)F)c1` (centres unmarked) [Compound 29, N-(3,5-bis(trifluoromethyl)phenyl)-2-(1-(piperidine-2-carbonyl)pyrrolidin-3-yl)acetamide], the negative-log IC50 (pIC50) is 5.15 on α1G (CaV 3.1) and 6.24 on α1H (CaV 3.2).

As for `N[C@H]1CCCC[C@H]1C(=O)N1CCC(CC(=O)Nc2cc(C(F)(F)F)cc(C(F)(F)F)c2)C1` (stereo partly drawn) [Compound 30, 2-(1-((1R,2S)-2-aminocyclohexanecarbonyl)pyrrolidin-3-yl)-N-(3,5-bis(trifluoromethyl)phenyl)acetamide], the pIC50 was 5.05 on α1G (CaV 3.1) and 6.15 on α1H (CaV 3.2).

As for `NC1(CC(=O)N2CCC(CNC(=O)Nc3cc(C(F)(F)F)cc(C(F)(F)F)c3)CC2)CCCCC1` [Compound 59, 1-((1-(2-(1-aminocyclohexyl)acetyl)piperidin-4-yl)methyl)-3-(3,5-bis(trifluoromethyl)phenyl)urea], the negative logarithm of the IC50 (pIC50) on α1H (CaV 3.2) is 7.52. Also, the “Epilepsy 6 Hz (% Protected)” value with 6 Hz psychomotor seizure (0.25 hr) is listed as 25%; in the data set on 6 Hz psychomotor seizure (0.5 hr), 50%; in the data set with 6 Hz psychomotor seizure (1 hr), 100%. Further, the “Rotarod Assay (% impaired)” value turned out to be 0% in data set [1] (0.25 hr); 25% in data set [1] (0.5 hr); 75% in data set [1] (1 hr); 100% in data set [1] (2 hr); 100% in data set [1] (4 hr).

With `NC1(CC(=O)N2CCC(NC(=O)Nc3cc(C(F)(F)F)cc(C(F)(F)F)c3)CC2)CCCCC1` [Compound 64, 1-(1-(2-(1-aminocyclohexyl)acetyl)piperidin-4-yl)-3-(3,5-bis(trifluoromethyl)phenyl)urea], at α1H (CaV 3.2), the pIC50 was 6.44.

`CC1(CC(=O)Nc2cc(C(F)(F)F)cc(C(F)(F)F)c2)CCN(C(=O)[C@H]2CCCCN2)CC1` [Compound 68]: the “Epilepsy 6 Hz (% Protected)” value with 6 Hz psychomotor seizure (0.25 hr) is 50%; in the data set on 6 Hz psychomotor seizure (0.5 hr) it was 75%; with 6 Hz psychomotor seizure (1 hr) it was 100%; with 6 Hz psychomotor seizure (2 hr), 50%; in the data set with 6 Hz psychomotor seizure (4 hr), 0%.

As for `O=C(Nc1cc(C(F)(F)F)cc(C(F)(F)F)c1)OCC1CCN(C(=O)[C@H]2CCCCN2)CC1` [Compound 69], the “Epilepsy 6 Hz (% Protected)” value with 6 Hz psychomotor seizure (0.25 hr) came to 75%; in the data set with 6 Hz psychomotor seizure (0.5 hr), 75%; in the data set on 6 Hz psychomotor seizure (1 hr), 50%; in the data set with 6 Hz psychomotor seizure (2 hr), 100%; in the data set on 6 Hz psychomotor seizure (4 hr), 33%. Also, the “Rotarod Assay (% impaired)” value in data set [1] (0.25 hr) was found to be 0%; in data set [1] (0.5 hr), 50%; in data set [1] (1 hr), 50%; in data set [1] (2 hr), 100%; in data set [1] (4 hr), 100%.

Turning to `N[C@@H]1CCCC[C@@H]1C(=O)N1CCC(CC(=O)Nc2cc(C(F)(F)F)cc(C(F)(F)F)c2)CC1` [Compound 73], the “Epilepsy 6 Hz (% Protected)” value in the data set on 6 Hz psychomotor seizure (0.25 hr), with 6 Hz psychomotor seizure (0.5 hr), with 6 Hz psychomotor seizure (1 hr) and in the data set with 6 Hz psychomotor seizure (4 hr) was 100% in each case. Besides, the “Rotarod Assay (% impaired)” value in data set [1] (0.25 hr) came to 100%; in data set [1] (0.5 hr), 100%; in data set [1] (1 hr), 100%; in data set [1] (2 hr), 100%; in data set [1] (4 hr), 75%.
